Results on 35 cell lines are retold here after the supplement of paper PMC10307832.

Compound in this assay: CN(C)C[C@@H]1CCn2cc(c3ccccc32)C2=C(C(=O)NC2=O)c2cn(c3ccccc23)CCO1 [Ruboxistaurin] + Cc1nc(NC(=O)N2CCC[C@H]2C(N)=O)sc1-c1ccnc(C(C)(C)C(F)(F)F)c1 [Alpelisib] (partner 2 µM)
Briefly: relative viability (nuclei count vs DMSO), 5 days (fraction); higher = more cells survive. The gist of the method:
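A single step with final 0.05% Triton X-100, 1% formaldehyde and 1 ug/ml Hoechst fixed the cells and stained nuclei 5 days after treatment. Lung cancer cell lines in 1536-well plates had been treated by pin tool the day after seeding with one drug alone or a fixed anchor-drug dose plus five library-drug doses (not always all listed) in √10 steps, and nuclei were counted on 4× images. Relative viability is the ratio of nuclei in treated wells to nuclei in vehicle wells, taken as the median of duplicate plates.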

On to EKVX, for which the relative viability was 0.998 (first compound 0.08 µM), 0.807 (first compound 0.8 µM), 0.858 (first compound 2.53 µM) and 0.745 (first compound 8 µM).

On to HARA, for which the relative viability (first compound 0.08 µM) was 1.05, the relative viability (first compound 0.8 µM) is 0.797, the relative viability (first compound 2.53 µM) was found to be 0.914 and the relative viability (first compound 8 µM) came to 0.481.

Turning to EMC-BAC-2, the relative viability by setting is: (first compound 0.08 µM) 0.75; (first compound 0.8 µM) 0.703; (first compound 2.53 µM) 0.733; (first compound 8 µM) 0.612.

As for PC-14, the relative viability is, setting by setting: (first compound 0.08 µM) 1.03; (first compound 0.8 µM) 0.887; (first compound 2.53 µM) 0.881; (first compound 8 µM) 1.

With NCI-H520, the relative viability was 0.976 (first compound 0.08 µM), 0.789 (first compound 0.8 µM), 1.01 (first compound 2.53 µM) and 0.822 (first compound 8 µM).

With NCI-H1755, the relative viability is, setting by setting: (first compound 0.08 µM) 0.962; (first compound 0.8 µM) 0.839; (first compound 2.53 µM) 0.897; (first compound 8 µM) 0.834.

For the cell line NCI-H2087, the relative viability was 1.07 (first compound 0.08 µM), 0.971 (first compound 0.8 µM), 1.24 (first compound 2.53 µM) and 0.952 (first compound 8 µM).

Consider NCI-H2023, for which the relative viability by setting is: (first compound 0.08 µM) 0.633; (first compound 0.8 µM) 0.565; (first compound 2.53 µM) 0.605; (first compound 8 µM) 0.415.

For CAL-12T, the relative viability (first compound 0.08 µM) was determined as 1.47, the relative viability (first compound 0.8 µM) is 1.17, the relative viability (first compound 2.53 µM) stood at 1.27 and the relative viability (first compound 8 µM) was determined as 1.13.

Turning to NCI-H2085, the relative viability came out at 0.996 (first compound 0.08 µM), 0.899 (first compound 0.8 µM), 0.977 (first compound 2.53 µM) and 0.997 (first compound 8 µM).

On to NCI-H650, for which the relative viability stood at 1.17 (first compound 0.08 µM), 0.888 (first compound 0.8 µM), 1.12 (first compound 2.53 µM) and 1.12 (first compound 8 µM).

Consider LCLC-97TM1, for which the relative viability reads like this: (first compound 0.08 µM) 0.245; (first compound 2.53 µM) 0.223; (first compound 8 µM) 0.204.

For NCI-H2126, the relative viability runs as follows: (first compound 0.08 µM) 0.729; (first compound 0.8 µM) 0.713; (first compound 2.53 µM) 0.76; (first compound 8 µM) 0.697.

Consider 201T, for which the relative viability was found to be 1.03 (first compound 0.08 µM), 1.01 (first compound 0.8 µM), 1.01 (first compound 2.53 µM) and 1.01 (first compound 8 µM).

For the cell line NCI-H1915, the relative viability is 1.07 (first compound 0.08 µM), 1.02 (first compound 0.8 µM), 1.03 (first compound 2.53 µM) and 1.09 (first compound 8 µM).

As to BEN, the relative viability is 1.06 (first compound 0.08 µM), 1.07 (first compound 0.8 µM), 0.973 (first compound 2.53 µM) and 0.787 (first compound 8 µM).

Consider NCI-H2347, for which the relative viability is, setting by setting: (first compound 0.08 µM) 1.09; (first compound 0.8 µM) 0.951; (first compound 2.53 µM) 0.967; (first compound 8 µM) 0.863.

H3255: the relative viability came out at 0.738 (first compound 0.08 µM), 0.698 (first compound 0.8 µM), 0.654 (first compound 2.53 µM) and 0.521 (first compound 8 µM).

On to NCI-H441, for which the relative viability (first compound 0.08 µM) came to 0.653, the relative viability (first compound 0.8 µM) was 0.717, the relative viability (first compound 2.53 µM) is 0.845 and the relative viability (first compound 8 µM) was 0.498.

For the cell line NCI-H2228, the relative viability (first compound 0.08 µM) was 0.85, the relative viability (first compound 0.8 µM) amounted to 0.675, the relative viability (first compound 2.53 µM) is 0.837 and the relative viability (first compound 8 µM) came out at 0.478.

Regarding NCI-H1975, the relative viability reads like this: (first compound 0.08 µM) 0.678; (first compound 0.8 µM) 0.565; (first compound 2.53 µM) 0.561; (first compound 8 µM) 0.447.

In the case of NCI-H647, the relative viability (first compound 0.08 µM) came to 1.2, the relative viability (first compound 0.8 µM) came to 0.995, the relative viability (first compound 2.53 µM) was determined as 1.06 and the relative viability (first compound 8 µM) stood at 0.899.

Turning to A-427, the relative viability (first compound 0.08 µM) worked out at 1.07, the relative viability (first compound 0.8 µM) was determined as 0.996, the relative viability (first compound 2.53 µM) worked out at 1.02 and the relative viability (first compound 8 µM) stood at 0.874.

Turning to LXF-289, the relative viability by setting is: (first compound 0.08 µM) 1.11; (first compound 0.8 µM) 0.952; (first compound 2.53 µM) 0.994; (first compound 8 µM) 1.

In the case of NCI-H727, the relative viability (first compound 0.08 µM) was found to be 0.543, the relative viability (first compound 0.8 µM) came out at 0.485, the relative viability (first compound 2.53 µM) amounted to 0.527 and the relative viability (first compound 8 µM) was 0.368.

With NCI-H1437, the relative viability reads like this: (first compound 0.08 µM) 1.12; (first compound 0.8 µM) 0.868; (first compound 2.53 µM) 1.03; (first compound 8 µM) 1.02.

Consider RERF-LC-KJ, for which the relative viability was 0.854 (first compound 0.08 µM), 0.798 (first compound 0.8 µM), 0.761 (first compound 2.53 µM) and 0.744 (first compound 8 µM).

As to NCI-H1792, the relative viability reads like this: (first compound 0.08 µM) 0.77; (first compound 0.8 µM) 0.62; (first compound 2.53 µM) 0.695; (first compound 8 µM) 0.694.

In the case of HCC-44, the relative viability worked out at 0.765 (first compound 0.08 µM), 0.715 (first compound 0.8 µM), 0.831 (first compound 2.53 µM) and 0.755 (first compound 8 µM).

Turning to EPLC-272H, the relative viability is 1.1 (first compound 0.08 µM), 0.807 (first compound 0.8 µM), 0.901 (first compound 2.53 µM) and 0.846 (first compound 8 µM).

Consider IA-LM, for which the relative viability worked out at 0.971 (first compound 0.08 µM), 0.663 (first compound 0.8 µM), 0.747 (first compound 2.53 µM) and 0.612 (first compound 8 µM).

In the case of NCI-H358, the relative viability came to 0.927 (first compound 0.08 µM), 0.666 (first compound 0.8 µM), 0.75 (first compound 2.53 µM) and 0.424 (first compound 8 µM).

For the cell line NCI-H596, the relative viability is, setting by setting: (first compound 0.08 µM) 0.494; (first compound 0.8 µM) 0.461; (first compound 2.53 µM) 0.502; (first compound 8 µM) 0.414.

With NCI-H322M, the relative viability is, setting by setting: (first compound 0.08 µM) 0.811; (first compound 0.8 µM) 0.74; (first compound 2.53 µM) 0.818; (first compound 8 µM) 0.67.

On to NCI-H1563, for which the relative viability (first compound 0.08 µM) came out at 0.972, the relative viability (first compound 0.8 µM) was 0.867, the relative viability (first compound 2.53 µM) stood at 1.05 and the relative viability (first compound 8 µM) came to 0.849.
